Laboratory results reported in publication PMC4848495, “Identification of a Potent and Broad-Spectrum Hepatitis C Virus Fusion Inhibitory Peptide from the E2 Stem Domain” (Scientific Reports, 2016).
Residues, ends and D or L forms follow the SMILES beside them.

How the values were obtained:
[1] = tested on: HCVpp packaged with E1E2 from genotypes 1–6; test: HCVpp entry assay; assay type: cell-based, Hepatitis C virus; conditions: HCVpp system and HCVcc system (Fig. 8A,B)
[2] = target: HCV glycoprotein E1E2-mediated membrane fusion (Hepatitis C virus genotype 1a, UniProt P27958); test: cell-based; assay type: cell-based, Hepatitis C virus (strain H77); conditions: cell-cell fusion assay (Supplementary Fig. S3)
Chain of HCV glycoprotein E1E2-mediated membrane fusion (Hepatitis C virus genotype 1a, UniProt P27958) (P27958 384-746): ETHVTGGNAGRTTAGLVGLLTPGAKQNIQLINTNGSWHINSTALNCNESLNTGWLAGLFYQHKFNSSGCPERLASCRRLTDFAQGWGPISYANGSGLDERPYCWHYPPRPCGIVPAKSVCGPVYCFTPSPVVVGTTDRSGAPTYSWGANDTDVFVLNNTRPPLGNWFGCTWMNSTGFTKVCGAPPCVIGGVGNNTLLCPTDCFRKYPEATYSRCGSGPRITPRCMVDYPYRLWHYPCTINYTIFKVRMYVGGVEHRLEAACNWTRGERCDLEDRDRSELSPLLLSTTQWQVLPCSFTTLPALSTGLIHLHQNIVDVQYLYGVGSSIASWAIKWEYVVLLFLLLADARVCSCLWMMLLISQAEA
Chain of HCV glycoprotein E1E2-mediated membrane fusion (Hepatitis C virus genotype 1a, UniProt P27958) (P27958 192-383): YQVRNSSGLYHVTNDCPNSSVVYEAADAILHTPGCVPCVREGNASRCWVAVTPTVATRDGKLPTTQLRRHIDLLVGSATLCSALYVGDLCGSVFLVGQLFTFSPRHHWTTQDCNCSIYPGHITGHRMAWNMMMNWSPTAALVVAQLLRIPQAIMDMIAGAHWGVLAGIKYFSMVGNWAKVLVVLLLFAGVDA

[3] = tested on: HCV glycoprotein E1E2-mediated membrane fusion; test: cell-based; assay type: cell-based, Hepatitis C virus (strain H77)
[4] = tested on: E1/E2 glycoproteins; test: Co-immunoprecipitation of E27 with E1 or E2; assay type: binding, Hepatitis C virus; conditions: Myc-tagged E27 co-expressed with Flag-tagged E1 or E2, anti-Flag immunoprecipitation
Method: (§1) Figure 5 Effect of E27 on E1E2 heterodimerization. (a) Analysis of the E1E2 heterodimer by native-PAGE. A plasmid expressing the E27 peptide or a scramble control peptide was co-transfected into Huh7.5.1 cells with a plasmid encoding E1E2. The single E1 or E2 plasmid was used as the control. At 24 h post-transfection, cells were lysed for Western blotting using antibodies recognizing E1 or E2. (b,c) Interaction between the E27 and E1/E2 glycoproteins was determined by co-immunoprecipitation. A plasmid expressing Myc-tagged E27 was co-expressed with either Flag-tagged E1 (b) or Flag-tagged E2 (c). Cell lysates were immunoprecipitated with an anti-Flag antibody and detected with an anti-Myc antibody or an anti-E1- or E2 antibody. The empty Flag vector was used as a negative control.
(§2) For cell lysate preparation, monolayer cells were lysed on ice with lysis buffer supplemented with protease inhibitor cocktail (Sigma or Pierce). After electrophoresis, the separated proteins were transferred onto a nitrocellulose membrane (Bio-Rad, Hercules, CA), blocked with 10% milk for 1 h, and incubated with the primary antibody overnight at 4 °C. The secondary antibody used was a 1:2000 dilution of HRP-linked anti-IgG. The ECL reagent (Amersham Biosciences, Piscataway, NJ) was used as the substrate for detection. […]

[5] = tested on: HCV entry into Huh7.5.1 cells; test: Time-of-addition assays; assay type: cell-based, Hepatitis C virus; conditions: 1 μM
Method: Next, to further corroborate that E27 targets HCV fusion, we sought to define the steps of HCV cell entry targeted by E27. […] In addition, we added E27 to Huh7.5.1 cells at different time intervals during the early phase of HCV infection. Three different time-points assays were conducted: cells were exposed to HCV for 1 h at 4 °C (attachment/binding period). Virus was removed, and the cells were washed with serum-free medium and incubated at 4 °C for another 1 h (postattachment/binding period). The cells were then washed and incubated for 1 h at 37 °C (endocytosis/fusion period). Finally, the cells were washed and incubated in 10% FBS-containing culture medium for 24 h, E27 was added at one of these steps. […] Moreover, we compared inhibitory kinetics between E27 and bafilomycin A1, a well-recognized inhibitor of fusion during virus infection.
Huh7.5.1 cells were seeded at 8 × 10^4 cells/well in 24-well plates. The next day, virus inoculum was added to the plates, which were then incubated at 4 °C for 1 h. Unbound virus was removed by 3 washes with cold medium. The cells were then shifted to 37 °C and incubated. The specified inhibitors were added at specific time points during infection and were either removed by washing after two hours or added back as described in the Figure legends. Firefly luciferase activity was quantified at 48 h post-infection. The experiments were performed in triplicate.

[6] = tested on: JFH-1 HCVcc; test: Virus pre-treatment (virocidal) assay; conditions: 1 μM, 2 h at 37 °C, unbound peptide removed by ultracentrifugation, then infection of Huh7.5.1 cells
Text: After removal of the unbound peptide, the viruses were resuspended and used to infect naïve Huh7.5.1 cells.

[7] = tested on: CLDN1, OCLND, CD81 and SR-BI in Huh7 cells; test: Co-receptor expression and localization (immunofluorescence, Western blotting); assay type: cell-based, human; conditions: 1 μM 24 h (staining), 0, 0.1, 1 or 5 μM (Western blotting)
Method: Figure 4 E27 affects neither HCV co-receptor localization nor expression levels. (a) DMSO and E27 (1 μM) were added to Huh7 cells and allowed to incubate for 24 h. CLDN1, OCLND, CD81 and SR-BI were stained with corresponding antibodies (green), and nuclei (blue) were stained with DAPI. (b) Huh7 cells were treated with 0, 0.1, 1 or 5 μM of E27, and the expression levels of CLDN1, OCLND, CD81 and SR-BI were analyzed by Western blotting. The expression of β-actin was also analyzed as a loading control.
Immunostaining of Huh7 cells was performed using antibodies against CLDN1, OClD, SR-BI or CD81 as previously descriped. Images were captured on a Leica SPW5 confocal microscope. Nucleus was stained with DAPI.
as §2, with “detection. For immunoprecipitation-coupled Western blotting, cleared cell lysates were immunoprecipitated with anti-FLAG M2 affinity resin (Sigma) and washed with lysis buffer.” for “detection.”

[8] = tested on: HCV full-length genotype 1b replicon-containing cell line (2-3+); assay type: cell-based, Hepatitis C virus; conditions: replicon cells, 1 μM, 48 h
[9] = tested on: VSV-G-pseudotyped lentivirus; assay type: cell-based
[10] = tested on: E1E2 heterodimer; test: E1E2 heterodimer analysis by native-PAGE / Western blotting; assay type: cell-based, Hepatitis C virus; conditions: E27 expressed from plasmid co-transfected with E1E2 in Huh7.5.1 cells, 24 h
Method: as §1, §2

[11] = tested on: Huh7.5.1 cells; test: Cytotoxicity assay (MTT); assay type: cell-based, human
Method: Huh7.5.1 cells were treated with E27 for the indicated concentration and period of time. After removal of E27, cells were incubated for an additional 48 h in 24-well plates. Cytotoxicity was determined using the MTT Cell Viability Assay Kit from R&D Systems (Minneapolis, MN, USA).

Compound	antiviral activity compared to the parental peptide [1]	suppression of wild-type E1E2-mediated fusion [2]	susceptibility of E1-1 and E1-9 mutated E1E2 to E27 in the fusion assay [3]	interaction with E1 or E2 [4]	inhibition when added during the attachment or binding step ([5]; 1 h at 4 °C)	inhibition when added together with the virus or within 2 h of infection ([5]; HCVpp, Huh7.5.1 cells, luciferase at 48 h)	inhibition when added prior to infection ([5]; added 2 or 4 h prior to HCVpp inoculation and removed, luciferase at 48 h)	inhibition of HCV infection when added during the late entry step ([5]; endocytosis/fusion period, 1 h at 37 °C)	virocidal effect on HCV [6]	effect on subcellular distribution and expression of co-receptors [7]	effect on intracellular HCV core protein level ([8]; Western blotting)	effect on HCV RNA replication ([8]; qRT-PCR)	inhibition of entry of VSV-G–pseudotyped lentivirus [9]	effect on E1E2 heterodimers [10]	CC50 [11] [µM]
CSFTTLP ALSTGLIHLHQNIVDVQYLYGV [E27-2, E27 shortened by 6 aa from the N-terminus, residues 7-35]	slightly increased														
CC[C@H](C)[C@H](NC(=O)[C@H](CC(C)C)NC(=O)CNC(=O)[C@@H](NC(=O)[C@H](CO)NC(=O)[C@H](CC(C)C)NC(=O)[C@H](C)NC(=O)[C@@H]1CCCN1C(=O)[C@H](CC(C)C)NC(=O)[C@@H](NC(=O)[C@@H](NC(=O)[C@H](Cc1ccccc1)NC(=O)[C@H](CO)NC(=O)[C@H](CS)NC(=O)[C@@H]1CCCN1C(=O)[C@H](CC(C)C)NC(=O)[C@@H](NC(=O)[C@H](CCC(N)=O)NC(=O)[C@H](Cc1c[nH]c2ccccc12)NC(=O)[C@@H](N)CCC(N)=O)C(C)C)[C@@H](C)O)[C@@H](C)O)[C@@H](C)O)C(=O)N[C@@H](Cc1c[nH]cn1)C(=O)N[C@@H](CC(C)C)C(=O)N[C@@H](Cc1c[nH]cn1)C(=O)N[C@@H](CCC(N)=O)C(=O)N[C@@H](CC(N)=O)C(=O)N[C@H](C(=O)N[C@H](C(=O)N[C@@H](CC(=O)O)C(=O)N[C@H](C(=O)N[C@@H](CCC(N)=O)C(=O)N[C@@H](Cc1ccc(O)cc1)C(=O)N[C@@H](CC(C)C)C(=O)N[C@@H](Cc1ccc(O)cc1)C(=O)NCC(=O)N[C@H](C(=O)O)C(C)C)C(C)C)C(C)C)[C@@H](C)CC [E27] (H-QWQVLPCSFTTLPALSTGLIHLHQNIVDVQYLYGV-OH; N-terminus and C-terminus assumed)		efficiently suppressed	markedly increased resistance	neither E1 nor E2 interact independently with E27	no inhibition was observed	best inhibitory activity	no inhibition was observed	strong inhibition	no virocidal effect	no detectable effect	no impact	no impact	did not inhibit	significant decrease	180.3
